Tests used:
Assay type in all cases: cell-based
[1] = MTT assay (cytotoxicity), LNCaP cells; conditions: human, LNCaP cells
Protocol: (§1) MTT assays: LNCaP, 22Rv1, Du145, H1975, A549, MB231 and MCF-7 cells are maintained in RPMI 1640 supplemented with 10% FBS. Cells were seeded at a density of 6-7×10^3 cells per well in 96-well plates. After overnight incubation, cells in fresh RPMI 1640 supplemented with 10% FBS were exposed to DMSO vehicle control or test compounds at designated concentrations for 72 h. Viable cells were evaluated by MTT assays. Experiments were performed in triplicate and repeated at least twice.

[2] = MTT assay (cytotoxicity), 22Rv1 cells; conditions: human, 22Rv1 cells
Protocol: as §1

LNCaP cells = assay: MTT assay (cytotoxicity), LNCaP cells; conditions: 72 h
Protocol: as §1

DU145 cells = assay: MTT assay (cytotoxicity), DU145 cells; conditions: 72 h
Protocol: as §1

Compound | IC50 at 72 h ([1]; 72 h treatment, Table 6.1) [µM] | IC50 at 72 h ([2]; 72 h treatment, Table 6.1) [µM] | other results
O=C(Nc1cccc(C(F)F)c1)Nc1ccc(NC(=O)c2ccccc2F)c(C(F)(F)F)c1 [Compound 912] | 11.6 | 16 | 
O=C(N/C=C/c1cccc(C(F)(F)F)c1)Nc1ccccc1 [Compound 413] |  |  | IC50 (LNCaP cells; Table 2.2): > 20 µM
O=C(Nc1ccc(NC(=O)c2ccccc2F)c(C(F)(F)F)c1)Nc1ccccc1C(F)(F)F [Compound 896] | 5.2 | 18.9 | 
O=C(Nc1cccc(C(F)F)c1)Nc1ccc(NC(=O)c2ccc(F)cc2F)c(C(F)(F)F)c1 [Compound 945] | 7.3 | 7.1 | 
O=C(N/C=C/c1ccccc1C(F)(F)F)Nc1ccc([N+](=O)[O-])c(C(F)(F)F)c1 [Compound 404] |  |  | IC50 (LNCaP cells; Table 2.2): 9.3 µM; IC50 (DU145 cells; Table 2.2): 16.4 µM
O=C(Nc1cccc(NC(=O)c2ccc(F)cc2)c1)Nc1cccc(C(F)(F)F)c1 [Compound 915] | 9 | 10.6 | 
O=C(Nc1cccc(C(F)(F)F)c1)Nc1cc(C(=O)O)cc(C(F)(F)F)c1 [Compound 949] | 2.9 | 32.9 | 
O=C(Nc1cccc(C(F)(F)F)c1)Nc1ccc(F)c(NC(=O)c2ccc(F)cc2F)c1 [Compound 943] | 6.3 | 13 | 
N#Cc1ccc(NC(=O)N/C=C/c2ccccc2C(F)(F)F)cc1 [Compound 405] |  |  | IC50 (LNCaP cells; Table 2.2): 3.4 µM; IC50 (DU145 cells; Table 2.2): 8.3 µM
O=C(Nc1cccc(C(F)F)c1)Nc1ccc(NC(=O)c2cc(C(F)(F)F)ccc2F)c(C(F)(F)F)c1 [Compound 941] | 5.4 | 3.6 | 
CN1CCN(c2cc(NC(=O)Nc3ccc(NC(=O)c4ccccc4F)c(C(F)(F)F)c3)cc(C(F)(F)F)c2)CC1 [Compound 862] | 3.4 |  | 
O=C(Nc1cccc(F)c1)Nc1cc(NC(=O)Nc2cccc(F)c2)cc(C(F)(F)F)c1 [Compound 964] | 2.4 | 1.8 | 
O=C(N/C=C/c1c[nH]cn1)Nc1ccc([N+](=O)[O-])c(C(F)(F)F)c1 [Compound 454] |  |  | IC50 at 72 h ([1]; 72 h, Table 2.4): > 10 µM
O=C(N/C=C/c1ccccc1C(F)(F)F)Nc1cccc(C(F)(F)F)c1 [Compound 406] |  |  | IC50 (LNCaP cells; Table 2.2): 14.4 µM
O=C(Nc1ccc(F)c(NC(=O)c2cc(C(F)(F)F)ccc2F)c1)Nc1ccccc1C(F)(F)F [Compound 959] | 13.5 | 8.7 | 
O=C(Nc1cccc(C(F)(F)F)c1)Nc1ccc(NC(=O)c2cc(F)ccc2F)c(C(F)(F)F)c1 [Compound 901] | 6.6 | 4.7 | 
O=C(Nc1cccc(C(F)(F)F)c1)Nc1ccc(NC(=O)c2cc(C(F)(F)F)ccc2F)c(C(F)(F)F)c1 [Compound 903] | 6.8 | 5 | 
O=C(Nc1cccc(C(F)(F)F)c1)Nc1ccc(F)c(NC(=O)c2c(F)cccc2F)c1 [Compound 913] | 12.3 | 14.2 | 
O=C(N/C=C/c1cc(C(F)(F)F)cc(C(F)(F)F)c1)Nc1ncccn1 [Compound 531] |  |  | IC50 (LNCaP cells; Table 2.1): < 1 µM; IC50 (DU145 cells; Table 2.1): < 1 µM
O=C(Nc1cccc(C(F)(F)F)c1)Nc1ccc(NC(=O)c2ccc(F)cc2F)c(C(F)(F)F)c1 [Compound 902] | 7.4 | 4.5 | 
O=C(Nc1cccc(C(F)(F)F)c1)Nc1ccc(F)c(NC(=O)c2cc(F)ccc2F)c1 [Compound 942] | 5.7 | 7.1 | 

Compound | IC50 at 72 h ([1]; 72 h treatment, Table 6.1) [µM] | IC50 at 72 h ([2]; 72 h treatment, Table 6.1) [µM] | other results
O=C(Nc1cccc(NC(=O)Nc2cccc(C(F)(F)F)c2)c1)Nc1cccc(C(F)(F)F)c1 [Compound 966] |  | 6.6 | 
O=C(Nc1cccc(C(F)(F)F)c1)Nc1ccc(NC(=O)c2cc(I)ccc2F)c(C(F)(F)F)c1 [Compound 952] | 5.2 | 7.8 | 
O=C(Nc1ccc(Br)cc1)Nc1cc(F)ccc1NC(=O)c1ccc(F)cc1F [Compound 962] | 5.3 | 4.9 | 
O=C(Nc1ccc(F)c(NC(=O)c2ccc(F)cc2F)c1)Nc1ccccc1C(F)(F)F [Compound 960] |  | 5.7 | 
O=C(Nc1cccc(C(F)(F)F)c1)Nc1ccc(F)c(NC(=O)c2cc(I)ccc2F)c1 [Compound 951] | 4 | 9.8 | 
O=C(Nc1cccc(F)c1)Nc1cc(F)ccc1NC(=O)c1ccc(F)cc1F [Compound 965] | 4.3 | 7.7 | 
N#Cc1ccc(NC(=O)NCC(=O)c2ccc(F)cc2)cc1C(F)(F)F [Compound 982] |  |  | IC50 at 72 h ([1]; 72 h, Table 2.4): 4.6 µM
O=C(Nc1cccc(C(F)(F)F)c1)Nc1ccc(NC(=O)c2c(F)cccc2F)c(C(F)(F)F)c1 [Compound 900] | > 10 | 10.4 | 
O=C(Nc1cccc(C(F)(F)F)c1)Nc1ccc(NC(=O)c2cc(Cl)ccc2F)c(C(F)(F)F)c1 [Compound 907] | 4.2 | 4.2 | 
O=C(Nc1cccc(C(F)F)c1)Nc1ccc(NC(=O)c2cc(F)ccc2F)c(C(F)(F)F)c1 [Compound 930] | 8.2 | 5.6 | 
O=C(Nc1cccc(C(F)(F)F)c1)Nc1ccc(NC(=O)c2ccc(N3CCOCC3)cc2F)c(C(F)(F)F)c1 [Compound 879] | 6.3 | 6.8 | 
O=C(Nc1cc(N2CCOCC2)cc(C(F)(F)F)c1)Nc1ccc(NC(=O)c2ccccc2F)c(C(F)(F)F)c1 [Compound 861] | 9.7 |  | 
O=C(Nc1cccc(C(F)(F)F)c1)Nc1cc(NC(=O)Nc2cccc(C(F)(F)F)c2)cc(C(F)(F)F)c1 [Compound 953] | 1.4 | 0.9 | 
O=C(Nc1cccc(C(F)(F)F)c1)Nc1ccc(F)cc1NC(=O)c1ccc(F)cc1F [Compound 961] | 6.2 | 10.1 | 
COc1cccc(NC(=O)N/C=C/c2cccs2)c1 [Compound 425] |  |  | IC50 at 72 h ([1]; 72 h, Table 2.4): > 20 µM
O=C(Nc1ccc(C(F)(F)F)cc1)Nc1cc(NC(=O)Nc2ccc(C(F)(F)F)cc2)cc(C(F)(F)F)c1 [Compound 955] | 1.5 | 0.9 | 
O=C(Nc1ccc(C(F)(F)F)cc1)Nc1ccc(NC(=O)c2ccccc2F)c(C(F)(F)F)c1 [Compound 897] | 1.9 | 7 | 
O=C(Nc1cc(F)cc(C(F)(F)F)c1)Nc1ccc(NC(=O)c2ccccc2F)c(C(F)(F)F)c1 [Compound 878] | 3.4 | 3.2 | 
O=C(Nc1cccc(C(F)(F)F)c1)Nc1ccc(NC(=O)c2cccnc2F)c(C(F)(F)F)c1 [Compound 911] | 13.8 | 10 | 
O=C(Nc1cccc(C(F)(F)F)c1)Nc1cc(NC(=O)c2ccccc2F)cc(C(F)(F)F)c1 [Compound 928] | 2.4 | 2 | 
O=C(Nc1ccc(Br)cc1)Nc1ccc(F)c(NC(=O)c2cc(C(F)(F)F)ccc2F)c1 [Compound 963] | 2.4 | 4.7 | 

Compound | IC50 at 72 h ([1]; 72 h treatment, Table 6.1) [µM] | IC50 at 72 h ([2]; 72 h treatment, Table 6.1) [µM] | other results
O=C(N/C=C/c1cccc(C(F)(F)F)c1)NCc1cccc(C(F)(F)F)c1 [Compound 460] |  |  | IC50 at 72 h ([1]; 72 h, Table 2.4): 7.9 µM
O=C(Nc1cccc(C(F)(F)F)c1)Nc1ccc(F)c(NC(=O)c2cc(C(F)(F)F)ccc2F)c1 [Compound 944] | 5.5 | 4.5 | 
O=C(N/C=C/c1ccc(C(F)(F)F)cc1)Nc1cccc(C(F)(F)F)c1 [Compound 408] |  |  | IC50 (LNCaP cells; Table 2.2): 15.6 µM
O=C(N/C=C/c1cccs1)Nc1ccc2c(c1)OCO2 [Compound 426] |  |  | IC50 at 72 h ([1]; 72 h, Table 2.4): > 20 µM
N#Cc1ccc(NC(=O)NCC(=O)c2cccc(C(F)(F)F)c2)cc1C(F)(F)F [Compound 937] |  |  | IC50 at 72 h ([1]; 72 h, Table 2.4): 7.3 µM
O=C(Nc1cccc(NC(=O)c2cccc(F)c2)c1)Nc1cccc(C(F)(F)F)c1 [Compound 914] | 7.3 | 8.7 | 
O=C(Nc1cccc(C(F)(F)F)c1)Nc1ccc(F)c(NC(=O)c2ccc(F)cc2)c1 [Compound 947] | 12.7 | 15.9 | 
O=C(N/C=C/c1cccc(C(F)(F)F)c1)Nc1cccc(C(F)(F)F)c1 [Compound 403] |  |  | IC50 (LNCaP cells; Table 2.2): 12.3 µM; IC50 (DU145 cells; Table 2.2): > 20 µM
O=C(N/C=C/c1cccc(OC(F)(F)F)c1)Nc1ccncn1 [Compound 875] | 4.6 | 8.8 | 
O=C(Nc1cccc(C(F)(F)F)c1)Nc1ccc(F)c(NC(=O)c2cc(Cl)ccc2F)c1 [Compound 929] | 5.5 | 5.7 | 
O=C(N/C=C/c1cc(C(F)(F)F)cc(C(F)(F)F)c1)Nc1ccc2[nH]ccc2c1 [Compound 516] |  |  | IC50 at 72 h ([1]; 72 h, Table 2.3): > 10 µM; IC50 at 72 h ([2]; 72 h, Table 2.3): > 10 µM
O=C(Nc1cccc(C(F)(F)F)c1)Nc1ccc(F)c(NC(=O)c2cccc(F)c2F)c1 [Compound 948] | 8 | 17.1 | 
O=C(Nc1cccc(C(F)(F)F)c1)Nc1ccc(F)c(NC(=O)c2cccc(F)c2)c1 [Compound 946] | 8.4 | 9.5 | 
O=C(Nc1cccc(C(F)(F)F)c1)Nc1ccc(F)c(NC(=O)Nc2ccccc2F)c1 [Compound 950] | 3.8 | 7.8 | 
O=C(Nc1cccc(C(F)(F)F)c1)Nc1ccccc1NC(=O)Nc1cccc(C(F)(F)F)c1 [Compound 967] | 2.7 | 3.1 | 
O=C(Nc1cccc(C(F)(F)F)c1)Nc1ccc(C(=O)Nc2ccc(F)cc2)c(C(F)(F)F)c1 [Compound 904] | 4.1 | 3.2 | 
O=C(Nc1cccc(C(F)(F)F)c1)Nc1ccc(NC(=O)Nc2cccc(F)c2)c(C(F)(F)F)c1 [Compound 905] | 5.5 | 11.4 | 
O=C(Nc1ccc(C(F)(F)F)cc1)Nc1ccc(F)c(NC(=O)c2ccc(F)cc2F)c1 [Compound 956] | 3.5 | 9.5 | 
O=C(Nc1cccc(C(F)(F)F)c1)Nc1ccc(NC(=O)Nc2ccc(F)cc2)c(C(F)(F)F)c1 [Compound 898] | 1.4 | 5.1 | 

Reference: US20170273922A1, “UREA AND BIS-UREA BASED COMPOUNDS AND ANALOGUES THEREOF USEFUL IN THE TREATMENT OF ANDROGEN RECEPTOR MEDIATED DISEASES OR DISORDERS” (THE ROYAL INSTITUTION FOR THE ADVACEMENT OF LEARNING/MCGILL …, priority 2014, published 2017)
